Measurements published in US20190380978A1, “SOLID ORAL DOSAGE FORMS OF 2R,6R-HYDROXYNORKETAMINE OR DERIVATIVES THEREOF” (priority 2016, published 2019).

How the values were obtained:
5-HT1A = molecular target: T1, 5-HT1A (Homo sapiens, UniProt P08908); test: binding to 5-HT1A receptor
T1 sequence (P08908 1-422): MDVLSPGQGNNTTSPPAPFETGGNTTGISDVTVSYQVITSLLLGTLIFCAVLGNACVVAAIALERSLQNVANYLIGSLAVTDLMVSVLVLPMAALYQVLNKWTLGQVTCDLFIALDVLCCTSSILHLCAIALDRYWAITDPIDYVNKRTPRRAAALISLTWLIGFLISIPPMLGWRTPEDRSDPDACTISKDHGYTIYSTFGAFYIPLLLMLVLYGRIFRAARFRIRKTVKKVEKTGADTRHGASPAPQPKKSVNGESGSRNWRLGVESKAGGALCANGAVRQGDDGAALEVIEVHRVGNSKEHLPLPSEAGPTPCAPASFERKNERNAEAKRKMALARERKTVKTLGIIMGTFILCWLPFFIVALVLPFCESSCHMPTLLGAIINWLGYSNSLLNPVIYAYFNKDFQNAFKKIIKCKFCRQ
From the text: (§1) 2R,6R-hydroxynorketamine was investigated for binding to monoamine oxidases A and B, monoamine transporters, as well as a variety of 5HT receptors.

dopamine transporter = dopamine transporter (Homo sapiens, UniProt Q01959); test: binding to dopamine transporter
From the text: as §1

plasma binding proteins [1] = test: fraction unbound in 100% plasma, mouse; type: in vitro ADME
From the text: (§2) While the risk of DDIs due to displacement from plasma binding proteins (PPBs) is relatively low, it should be considered for drugs which display a high proportion PPB (fraction unbound (fu)<1%).
(§3) The fu was investigated for 2R,6R-hydroxynorketamine using a 100% plasma from 4 test species.

plasma binding proteins [2] = test: fraction unbound in 100% plasma, rat; type: in vitro ADME
From the text: as §2, §3

CYP2D6 = CYP2D6 (Homo sapiens, UniProt P10635); test: CYP inhibition assay, CYP2D6; type: in vitro ADME
From the text: (§4) Cytochrome P450s (CYPs) are a family of enzymes that play a primary role in the metabolism of a wide variety of drugs. 2R,6R-hydroxynorketamine was investigated for its potential to inhibit the action of 7 key CYP enzymes using an inhibition assay measuring reduction in the formation of metabolites compared to control.

CYP2C19 = CYP2C19 (Homo sapiens, UniProt P33261); test: CYP inhibition assay, CYP2C19; type: in vitro ADME
From the text: as §4

UGT2B7 = UGT2B7 (Homo sapiens, UniProt P16662); test: UGT inhibition assay, UGT2B7; type: in vitro ADME
[3] = in vitro hepatocyte stability assay, rat; type: in vitro ADME; settings: cryopreserved hepatocytes
Protocol: (§5) 2R,6R-hydroxynorketamine was investigated using an in vitro hepatocyte stability assay, during which 2R,6R-hydroxynorketamine was incubated with cryopreserved hepatocytes from 3 test species.

[4] = in vitro hepatocyte stability assay, dog; type: in vitro ADME; settings: cryopreserved hepatocytes
Protocol: as §5

[5] = DSC analysis of compatibility with diluents and capsule shells

Sequence of dopamine transporter (Q01959 whole entry): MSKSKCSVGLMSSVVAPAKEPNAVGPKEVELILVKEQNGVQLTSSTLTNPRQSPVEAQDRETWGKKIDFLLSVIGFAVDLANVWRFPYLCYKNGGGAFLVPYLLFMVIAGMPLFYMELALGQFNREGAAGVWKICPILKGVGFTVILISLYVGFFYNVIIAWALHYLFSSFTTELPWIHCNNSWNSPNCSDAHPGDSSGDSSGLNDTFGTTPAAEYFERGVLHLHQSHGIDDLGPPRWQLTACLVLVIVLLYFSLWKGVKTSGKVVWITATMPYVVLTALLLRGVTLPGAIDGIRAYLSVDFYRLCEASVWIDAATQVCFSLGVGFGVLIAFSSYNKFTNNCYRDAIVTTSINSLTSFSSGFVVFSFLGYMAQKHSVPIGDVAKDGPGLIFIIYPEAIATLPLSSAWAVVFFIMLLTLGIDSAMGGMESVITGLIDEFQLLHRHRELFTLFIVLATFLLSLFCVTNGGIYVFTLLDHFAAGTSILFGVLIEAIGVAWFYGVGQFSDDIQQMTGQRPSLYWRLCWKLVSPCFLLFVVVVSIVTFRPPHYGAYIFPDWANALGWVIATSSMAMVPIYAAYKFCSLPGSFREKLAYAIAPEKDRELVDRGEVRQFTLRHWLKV
Sequence of CYP2C19 (P33261 whole entry): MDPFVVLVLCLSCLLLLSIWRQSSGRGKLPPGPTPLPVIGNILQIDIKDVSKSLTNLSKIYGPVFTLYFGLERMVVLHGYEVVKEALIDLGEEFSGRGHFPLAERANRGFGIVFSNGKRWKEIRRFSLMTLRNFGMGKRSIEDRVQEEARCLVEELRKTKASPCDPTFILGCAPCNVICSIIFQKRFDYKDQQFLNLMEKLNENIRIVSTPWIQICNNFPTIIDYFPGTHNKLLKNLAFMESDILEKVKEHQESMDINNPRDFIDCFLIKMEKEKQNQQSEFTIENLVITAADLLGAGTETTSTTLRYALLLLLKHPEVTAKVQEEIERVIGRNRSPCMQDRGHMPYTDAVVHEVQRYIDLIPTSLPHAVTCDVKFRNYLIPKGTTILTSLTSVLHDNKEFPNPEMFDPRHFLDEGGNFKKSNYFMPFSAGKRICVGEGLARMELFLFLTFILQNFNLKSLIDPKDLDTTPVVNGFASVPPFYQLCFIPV
Sequence of CYP2D6 (P10635 whole entry): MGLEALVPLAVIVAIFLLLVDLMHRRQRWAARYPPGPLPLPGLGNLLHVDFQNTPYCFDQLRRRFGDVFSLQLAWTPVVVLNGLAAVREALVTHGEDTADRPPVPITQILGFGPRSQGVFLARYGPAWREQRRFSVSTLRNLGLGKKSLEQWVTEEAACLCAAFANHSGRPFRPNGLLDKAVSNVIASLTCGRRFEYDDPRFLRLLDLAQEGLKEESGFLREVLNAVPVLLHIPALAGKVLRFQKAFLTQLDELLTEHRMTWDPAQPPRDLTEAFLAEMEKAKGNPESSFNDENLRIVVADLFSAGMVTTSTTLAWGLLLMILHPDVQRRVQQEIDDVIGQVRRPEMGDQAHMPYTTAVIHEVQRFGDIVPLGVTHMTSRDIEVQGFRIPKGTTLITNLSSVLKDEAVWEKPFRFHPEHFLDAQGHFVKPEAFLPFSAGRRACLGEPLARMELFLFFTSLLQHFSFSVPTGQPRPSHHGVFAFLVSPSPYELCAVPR
Sequence of UGT2B7 (P16662 24-529): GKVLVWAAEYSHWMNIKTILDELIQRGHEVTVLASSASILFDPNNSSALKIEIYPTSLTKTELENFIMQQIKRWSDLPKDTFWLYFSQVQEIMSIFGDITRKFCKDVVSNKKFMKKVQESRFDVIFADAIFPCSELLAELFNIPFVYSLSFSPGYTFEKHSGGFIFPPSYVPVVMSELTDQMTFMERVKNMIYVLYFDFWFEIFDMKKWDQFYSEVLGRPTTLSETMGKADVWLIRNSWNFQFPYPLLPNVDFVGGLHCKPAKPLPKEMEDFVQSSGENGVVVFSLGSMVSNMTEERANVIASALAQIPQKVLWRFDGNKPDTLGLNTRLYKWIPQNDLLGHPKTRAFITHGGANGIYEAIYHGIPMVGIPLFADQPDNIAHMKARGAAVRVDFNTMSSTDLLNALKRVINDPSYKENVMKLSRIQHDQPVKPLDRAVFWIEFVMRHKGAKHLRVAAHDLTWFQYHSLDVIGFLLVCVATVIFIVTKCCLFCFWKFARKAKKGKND

In the case of N[C@@]1(c2ccccc2Cl)CCC[C@@H](O)C1=O [2R,6R-hydroxynorketamine], the “% Inhibition of Control Specific Binding” value (5-HT1A) was 5%, the “% of Control Specific Binding” value (5-HT1A) was 97.9% and the “binding to 5HT1A receptor subtype” value (5-HT1A) was “does not bind”. For the same molecule, the “% Inhibition of Control Specific Binding” value (dopamine transporter) was 11%, the “% of Control Specific Binding” value (dopamine transporter) was 87.2% and the “activity at dopamine transporters” value (dopamine transporter) was “nor activity at dopamine transporters”. For the same molecule, the “plasma protein binding (PPB), words” value (plasma binding proteins [1]) was “low PPB”, the “plasma protein binding (PPB), words” value (plasma binding proteins [2]) was “low PPB” and the inhibition at 0.4 µM (CYP2D6; 0.4 μM) was 3.16%. The inhibition at 1 µM (CYP2D6; 1 μM) was 6.65%, the inhibition at 4 µM (CYP2D6; 4 μM) was 11.5% and the inhibition at 10 µM (CYP2D6; 10 μM) was 9.41%. The inhibition at 40 µM (CYP2D6; 40 μM) was 11.2%, the inhibition at 100 µM (CYP2D6; 100 μM) was 5.73% and the “inhibition of CYP2C19” value (CYP2C19) was “did not inhibit”. The inhibition at 0.4 µM (CYP2C19; human, 0.4 μM) was -2.01%, the inhibition at 1 µM (CYP2C19; human, 1 μM) was -1.66% and the inhibition at 4 µM (CYP2C19; human, 4 μM) was 1.85%. It also gave an inhibition at 10 µM (CYP2C19; human, 10 μM) of 6.69%, an inhibition at 40 µM (CYP2C19; human, 40 μM) of 8.25% and an inhibition at 100 µM (CYP2C19; human, 100 μM) of 16.1%. For the same molecule, the “inhibition of UGT2B7” value (UGT2B7) was “does not inhibit”, the half-life [3] was 0.418 h and the hepatocyte CLint [3] was 55.2 µL/min/1e6 cells. For the same molecule, the half-life [4] was 4.9 h, the hepatocyte CLint [4] was 4.72 µL/min/1e6 cells and the “compatibility with hydroxypropyl methylcellulose capsule shells” value [5] was “compatibility”. The “compatibility with dicalcium phosphate” value ([5]; DSC) was “compatibility”, the “compatibility with microcrystalline cellulose” value ([5]; DSC) was “compatibility” and the “compatibility with lactose monohydrate” value ([5]; DSC, binary mix, 1:2 ratio of API:Excipient) was “incompatible”.
